{
  "source": "patent US4302472A",
  "about": "“Substituted N-(β-alkoxy-ethyl)-N-(4-phenoxy-benzyl)-dichloro-acetamides and process for their preparation” (Farmitalia Carlo Erba S.p.A., priority 1977, dated 1981)",
  "key": {"[1]": {"test_system": "Entamoeba histolytica Meah", "experiment": "In vitro antiamebic activity by serial dilutions in monophasic Pavlova medium", "format": "cell-based", "details": "48 hours, 37° C.; for minimal amoebicidal concentration, mean: mean of Dosage I-X", "method": "The in vitro activity on Entamoeba histolytica Meah was determined on the products under test and on reference compounds, by the method of serial dilutions (ratio 1:1.5) in monophasic Pavlova medium with inoculation of 30,000 protozoa/ml and with incubation at 37° C. for 48 hours.\nThe level of activity of the compounds was determined by means of direct microscopical examination at 125 and 500 magnifications of the entire sediment of each culture. The results were expressed as minimal amoebicidal concentration in μg/ml."}, "[2]": {"test_system": "Entamoeba histolytica Meah", "experiment": "In vivo antiamebic activity in intestinal infection in the rat", "parameters": "species or system albino rats (strain:Wistar CFHB); key to Mean Score: mean score, 0 = no amoebae/ulceration to 5 = >half cecum ulcerated", "details": "for Mean Score: by gavage, 20 animals, score 0 (no amoebae, no ulceration) to 5, vehicle control 3.5; for ED50: Entamoeba histolytica, po, calculated on the number of animals with score = 0, rat, by gavage twice a day for 21/2 days", "method": "The in vivo antiamebic activity in the intestinal infection was determined with a method similar to the method described by Jones (Ann.trop.Med.Paras., 40, 130-140, 1946), as reported hereunder. Young, specific pathogen free albino rats (strain:Wistar CFHB) weighing 30-35 g and fed on a low-protein diet, were infected by intracecal injection with a suspension of trophozoites of Entamoaba histolytica Meah (250,000/rat) containing 3% of Wilson […] mucin. The substances under test and the reference products were administered in serial doses, by gavage twice a day for 21/2 days. The therapeutic effect was determined on the fifth day after infection on the basis of the presence or absence of amebic ulcers in the cecal mucosa and of viable amoebae in the cecal mucosa and in the fecal content of the cecum.\nEach animal was assigned a score, according to the following scale:\nscore 0=no amoebae, no ulceration;\nscore 1=from 1 to 20 amoebae per faecal smear; no amoeba in the scrape of caecal mucosa; no ulceration;\nscore 2=from 20 to a very large number of amoebae per smear of feces; no ameoba in the mucosal scrape; no ulceration;\nscore 3=amoebae originating from microscopic lesions of the cecal mucosa;\nscore 4=microscopic lesions of the cecal mucosa;\nscore 5=more than half the cecum ulcerated by amoebic lesions.\nThe antiamebic activity was expressed both as ED50 calculated according to the number of animals totally free of amoebae (score=0) and as mean score for each dose level."}, "[3]": {"experiment": "Approximate acute toxicity (LD50) in the mouse, single administration per os", "details": "in vivo, po, measured on the seventh day", "method": "The toxicity of the compounds of the invention is quite negligible. For example, for the compounds A and B mentioned in the foregoing Tables the approximate acute toxicity (LD50) in the mouse, determined with single administration of increasing doses and measured on the seventh day of treatment, was, per os, much higher than 800 mg/kg. Similar LD50 are found also for the other compounds of the invention, in particular for the compounds: […]"}, "Absorption": {"experiment": "Absorption", "details": "in vivo"}, "[4]": {"test_system": "amoebae within the intestinal wall", "experiment": "Activity on amoebae within the intestinal wall", "details": "in vivo"}},
  "data": [
    {"smiles": "CCOCCN(Cc1ccc(Oc2ccc(N)cc2)cc1)C(=O)C(Cl)Cl", "note": "[Compound A, N-(β-ethoxy-ethyl)-N-[4-phenoxy-(4'-amino)-benzyl]-dichloroacetamide]", "values": [
      {"measurement": "minimal amoebicidal concentration", "setting": "[1]; Dosage I", "value": 0.017, "unit": "µg/mL"},
      {"measurement": "minimal amoebicidal concentration", "setting": "[1]; Dosage II", "value": 0.017, "unit": "µg/mL"},
      {"measurement": "minimal amoebicidal concentration", "setting": "[1]; Dosage III", "value": 0.017, "unit": "µg/mL"},
      {"measurement": "minimal amoebicidal concentration", "setting": "[1]; Dosage IV", "value": 0.026, "unit": "µg/mL"},
      {"measurement": "minimal amoebicidal concentration", "setting": "[1]; Dosage IX", "value": 0.026, "unit": "µg/mL"},
      {"measurement": "minimal amoebicidal concentration", "setting": "[1]; Dosage V", "value": 0.011, "unit": "µg/mL"},
      {"measurement": "minimal amoebicidal concentration", "setting": "[1]; Dosage VI", "value": 0.011, "unit": "µg/mL"},
      {"measurement": "minimal amoebicidal concentration", "setting": "[1]; Dosage VII", "value": 0.026, "unit": "µg/mL"},
      {"measurement": "minimal amoebicidal concentration", "setting": "[1]; Dosage VIII", "value": 0.017, "unit": "µg/mL"},
      {"measurement": "minimal amoebicidal concentration", "setting": "[1]; Dosage X", "value": 0.026, "unit": "µg/mL"},
      {"measurement": "minimal amoebicidal concentration, mean", "setting": "[1]", "value": 0.019, "unit": "µg/mL"},
      {"measurement": "Mean Score", "setting": "[2]; 6.2 mg/kg × 5 times", "value": 1.6},
      {"measurement": "Mean Score", "setting": "[2]; 12.5 mg/kg × 5 times", "value": 1.1},
      {"measurement": "Mean Score", "setting": "[2]; 25 mg/kg × 5 times", "value": 1.0},
      {"measurement": "Mean Score", "setting": "[2]; 50 mg/kg × 5 times", "value": 0.5},
      {"measurement": "ED50", "setting": "[2]", "value": 19, "unit": "mg/kg"},
      {"measurement": "LD50 at 168 h", "setting": "[3]", "value": "> 800", "unit": "mg/kg"}
    ]},
    {"smiles": "CCOCCN(Cc1ccc(Oc2ccc(NC(C)=O)cc2)cc1)C(=O)C(Cl)Cl", "note": "[Compound B, N-(β-ethoxy-ethyl)-N-[4-phenoxy-(4'-acetamido)-benzyl]-dichloroacetamide]", "values": [
      {"measurement": "minimal amoebicidal concentration", "setting": "[1]; Dosage I", "value": 0.004, "unit": "µg/mL"},
      {"measurement": "minimal amoebicidal concentration", "setting": "[1]; Dosage II", "value": 0.005, "unit": "µg/mL"},
      {"measurement": "minimal amoebicidal concentration", "setting": "[1]; Dosage III", "value": 0.007, "unit": "µg/mL"},
      {"measurement": "minimal amoebicidal concentration", "setting": "[1]; Dosage IV", "value": 0.013, "unit": "µg/mL"},
      {"measurement": "minimal amoebicidal concentration", "setting": "[1]; Dosage IX", "value": 0.017, "unit": "µg/mL"},
      {"measurement": "minimal amoebicidal concentration", "setting": "[1]; Dosage V", "value": 0.017, "unit": "µg/mL"},
      {"measurement": "minimal amoebicidal concentration", "setting": "[1]; Dosage VI", "value": 0.008, "unit": "µg/mL"},
      {"measurement": "minimal amoebicidal concentration", "setting": "[1]; Dosage VII", "value": 0.003, "unit": "µg/mL"},
      {"measurement": "minimal amoebicidal concentration", "setting": "[1]; Dosage VIII", "value": 0.026, "unit": "µg/mL"},
      {"measurement": "minimal amoebicidal concentration", "setting": "[1]; Dosage X", "value": 0.017, "unit": "µg/mL"},
      {"measurement": "minimal amoebicidal concentration, mean", "setting": "[1]", "value": 0.011, "unit": "µg/mL"},
      {"measurement": "LD50 at 168 h", "setting": "[3]", "value": "> 800", "unit": "mg/kg"}
    ]},
    {"smiles": "CN(C(=O)C(Cl)Cl)c1ccc(OC(=O)c2ccco2)cc1", "note": "[Diloxanide furoate]", "values": [
      {"measurement": "minimal amoebicidal concentration", "setting": "[1]; Dosage I", "value": 0.44, "unit": "µg/mL"},
      {"measurement": "minimal amoebicidal concentration", "setting": "[1]; Dosage II", "value": 0.44, "unit": "µg/mL"},
      {"measurement": "minimal amoebicidal concentration", "setting": "[1]; Dosage III", "value": 0.44, "unit": "µg/mL"},
      {"measurement": "minimal amoebicidal concentration", "setting": "[1]; Dosage IV", "value": 0.29, "unit": "µg/mL"},
      {"measurement": "minimal amoebicidal concentration", "setting": "[1]; Dosage IX", "value": 0.19, "unit": "µg/mL"},
      {"measurement": "minimal amoebicidal concentration", "setting": "[1]; Dosage V", "value": 0.29, "unit": "µg/mL"},
      {"measurement": "minimal amoebicidal concentration", "setting": "[1]; Dosage VI", "value": 0.19, "unit": "µg/mL"},
      {"measurement": "minimal amoebicidal concentration", "setting": "[1]; Dosage VII", "value": 0.29, "unit": "µg/mL"},
      {"measurement": "minimal amoebicidal concentration", "setting": "[1]; Dosage VIII", "value": 0.19, "unit": "µg/mL"},
      {"measurement": "minimal amoebicidal concentration", "setting": "[1]; Dosage X", "value": 0.19, "unit": "µg/mL"},
      {"measurement": "minimal amoebicidal concentration, mean", "setting": "[1]", "value": 0.30, "unit": "µg/mL"}
    ]},
    {"smiles": "CCOCCN(Cc1ccc(Oc2ccc([N+](=O)[O-])cc2)cc1)C(=O)C(Cl)Cl", "note": "[Etofamide]", "values": [
      {"measurement": "minimal amoebicidal concentration", "setting": "[1]; Dosage I", "value": 0.026, "unit": "µg/mL"},
      {"measurement": "minimal amoebicidal concentration", "setting": "[1]; Dosage II", "value": 0.026, "unit": "µg/mL"},
      {"measurement": "minimal amoebicidal concentration", "setting": "[1]; Dosage III", "value": 0.058, "unit": "µg/mL"},
      {"measurement": "minimal amoebicidal concentration", "setting": "[1]; Dosage IV", "value": 0.058, "unit": "µg/mL"},
      {"measurement": "minimal amoebicidal concentration", "setting": "[1]; Dosage IX", "value": 0.058, "unit": "µg/mL"},
      {"measurement": "minimal amoebicidal concentration", "setting": "[1]; Dosage V", "value": 0.026, "unit": "µg/mL"},
      {"measurement": "minimal amoebicidal concentration", "setting": "[1]; Dosage VI", "value": 0.017, "unit": "µg/mL"},
      {"measurement": "minimal amoebicidal concentration", "setting": "[1]; Dosage VII", "value": 0.039, "unit": "µg/mL"},
      {"measurement": "minimal amoebicidal concentration", "setting": "[1]; Dosage VIII", "value": 0.017, "unit": "µg/mL"},
      {"measurement": "minimal amoebicidal concentration", "setting": "[1]; Dosage X", "value": 0.039, "unit": "µg/mL"},
      {"measurement": "minimal amoebicidal concentration, mean", "setting": "[1]", "value": 0.036, "unit": "µg/mL"},
      {"measurement": "Mean Score", "setting": "[2]; 6.2 mg/kg × 5 times", "value": 3.3},
      {"measurement": "Mean Score", "setting": "[2]; 12.5 mg/kg × 5 times", "value": 1.6},
      {"measurement": "Mean Score", "setting": "[2]; 25 mg/kg × 5 times", "value": 1.3},
      {"measurement": "Mean Score", "setting": "[2]; 50 mg/kg × 5 times", "value": 1.0},
      {"measurement": "ED50", "setting": "[2]", "value": 29, "unit": "mg/kg"}
    ]},
    {"smiles": "CCOCCN(Cc1ccc(Oc2ccc(NC(=O)CN)cc2)cc1)C(=O)C(Cl)Cl", "note": "[N-(β-ethoxy-ethyl)-N-[4-phenoxy-(4'-glycinylamino)-benzyl]-dichloroacetamide]", "values": [
      {"measurement": "absorption", "setting": "Absorption", "value": "absorbed to a greater extent"},
      {"measurement": "activity on amoebae within the intestinal wall", "setting": "[4]", "value": "active on amoebae within the intestinal wall itself"}
    ]},
    {"smiles": "CCOCCN(Cc1ccc(CN(CCOCC)C(=O)C(Cl)Cl)cc1)C(=O)C(Cl)Cl", "note": "[Teclozan]", "values": [
      {"measurement": "minimal amoebicidal concentration", "setting": "[1]; Dosage I", "value": 0.058, "unit": "µg/mL"},
      {"measurement": "minimal amoebicidal concentration", "setting": "[1]; Dosage II", "value": 0.058, "unit": "µg/mL"},
      {"measurement": "minimal amoebicidal concentration", "setting": "[1]; Dosage III", "value": 0.087, "unit": "µg/mL"},
      {"measurement": "minimal amoebicidal concentration", "setting": "[1]; Dosage IV", "value": 0.058, "unit": "µg/mL"},
      {"measurement": "minimal amoebicidal concentration", "setting": "[1]; Dosage IX", "value": 0.087, "unit": "µg/mL"},
      {"measurement": "minimal amoebicidal concentration", "setting": "[1]; Dosage V", "value": 0.087, "unit": "µg/mL"},
      {"measurement": "minimal amoebicidal concentration", "setting": "[1]; Dosage VI", "value": 0.058, "unit": "µg/mL"},
      {"measurement": "minimal amoebicidal concentration", "setting": "[1]; Dosage VII", "value": 0.087, "unit": "µg/mL"},
      {"measurement": "minimal amoebicidal concentration", "setting": "[1]; Dosage VIII", "value": 0.087, "unit": "µg/mL"},
      {"measurement": "minimal amoebicidal concentration", "setting": "[1]; Dosage X", "value": 0.058, "unit": "µg/mL"},
      {"measurement": "minimal amoebicidal concentration, mean", "setting": "[1]", "value": 0.072, "unit": "µg/mL"}
    ]}
  ]
}
